≈ marks a conversion by molar mass, not a printed value.
Key:
[1] = test system: IL1-β, IL-6, TNF-α, CINC-1, CINC-3, IL-10 and TGF-β; experiment: Dermal cytokine analysis (ELISA) of burn wound skin; assay type: in vivo, Sprague-Dawley rats
Description: After drying, an occlusive dressing of sterile […] […] Stock nanoemulsion […] […] The occlusive dressing and TELFA was removed. […] Homogenates were centrifuged at 3000 g for 5 minutes and the supernatants collected and stored frozen at -80° C. until use. Rat IL1-β, IL-6, […]-10 and TGF-β were measured by sandwich enzyme-linked immunosorbent assay (ELISA) using antibodies and reagents from R&D Systems, Inc. (Minneapolis, Minn.). The assay was carried out in 96-well microplates (Immunoplate Maxisorb, Nunc, Neptune, N.J.) according to the kit instructions and samples were read using a microplate reader (Biotek Instruments, Winooski, Vt.) at 450 nm with a wavelength correction of 540 nm. Cytokine concentrations were determined using the plate reader software and a 7-point standard curve. Results were adjusted for previous dilution and expressed as pg/mL.

[2] = test system: Myeloperoxidase; experiment: Detection of neutrophil sequestration (myeloperoxidase assay); assay type: in vivo, Sprague-Dawley rats; settings: infected burn wound, 32 hours post-injury
Description: The occlusive dressing and TELFA was removed.
100 mg of skin tissue was mechanically homogenized in 1 mL ice cold potassium phosphate buffer consisting of 115 mM monobasic potassium phosphate (Sigma Aldrich, Milwaukee, Wis.). Homogenates were centrifuged at 3000 g for 10 min at 4° C., the supernatants were removed and the pellets were re-suspended in 1 mL C-TAB buffer consisting of dibasic potassium phosphate, cetyltrimethylammonium bromide, and acetic acid (Sigma Aldrich, Milwaukee, Wis.). The suspensions were sonicated (Branson Sonifier 250, Danbury, Conn.) on ice for 40 seconds. Homogenates were centrifuged at 3000 g for 10 min at 4° C. and the supernatant collected. Supernatants were incubated in 60° C. water bath for 2 hours (Shaker Bath, 2568; Forma Scientific, Marietta, Ohio). Samples were stored at −80° C. until needed or assayed immediately.

[3] = test system: Proteus mirabilis; experiment: MIC determination, CLSI microdilution with alamar blue; assay type: cell-based; settings: Proteus mirabilis (n = 5); nanoemulsions in the presence of 5 mM EDTA; in µg/mL
[4] = test system: Burkholderia cepacia; experiment: as above; assay type: cell-based; settings: Burkholderia cepacia (n = 5); nanoemulsions in the presence of 5 mM EDTA
[5] = test system: Stenotrophomonas strains; experiment: Checkerboard synergy study (FIC/FBC index); assay type: cell-based, Stenotrophomonas maltophilia; settings: Stenotrophomonas; in combination with P4075EC+EDTA
[6] = test system: Acinetobacter strains; experiment: Checkerboard synergy study (FIC/FBC index); assay type: cell-based, Acinetobacter baumannii; settings: Acinetobacter; in combination with P4075EC+EDTA
[7] = test system: Burkholderia strains; experiment: Checkerboard synergy study (FIC/FBC index); assay type: cell-based, Burkholderia cenocepacia; settings: Burkholderia; in combination with P4075EC+EDTA
[8] = test system: Acinetobacter baumannii; experiment: MIC and MBC determination (CLSI, alamar blue); settings: Acinetobacter
[9] = test system: Pseudomonas aeruginosa; experiment: MIC and MBC determination (CLSI, alamar blue), CF isolates; settings: Pseudomonas
[10] = test system: Burkholderia cenocepacia; experiment: as above
[11] = test system: Stenotrophomonas maltophilia; experiment: as above

What does the source list for `NCc1ccc(S(N)(=O)=O)cc1` [Sulfamylon, mafenide acetate]?
level of IL-10 or TGF-β in the infected burn wound ([1]; 32 hours): did not suppress; dermal levels of proinflammatory cytokines IL-6, TNF-α, CINC-1 or CINC-3 compared to controls ([1]; infected burn wound): did not result in any significant alteration; myeloperoxidase [2]: 0.08 ± 0.02 µg/mL

For Piperacillin/tazobactam, which “MIC Range” value [3] is on record?
Its value is “<=0.5-1”.

`NC[C@H]1O[C@H](O[C@H]2[C@H](O)[C@@H](O[C@H]3O[C@H](CO)[C@@H](O)[C@H](N)[C@H]3O)[C@H](N)C[C@@H]2N)[C@H](N)C[C@@H]1O` [Tobramycin] was tested. Which MIC 50 [4] did it give?
The MIC 50 was 16 µg/mL.

What about the Overall synergy result [5] of the same compound?
The Overall synergy result was “No Interference”.

And the Overall synergy result [6]?
Its Overall synergy result is “No Interference”.

What about the Overall synergy result [7] of the same compound?
The Overall synergy result was “No Interference”.

And the “MIC 50” value [8]?
Its value is 1 µg/mL (≈ 2.14 µM).

And the “MIC 90” value [8]?
Its value is 16 µg/mL (≈ 34.2 µM).

And the “MIC 50” value [9]?
Its value is 1 µg/mL (≈ 2.14 µM).

And the “MIC 90” value [9]?
The value was 16 µg/mL (≈ 34.2 µM).

What about the “MIC 90” value ([10]; Burkholderia) of the same compound?
Its value is >32 µg/mL.

And the MIC 50 ([10]; Burkholderia cenocepacia)?
The MIC 50 was > 32 µg/mL.

And the MIC 90 ([10]; Burkholderia cenocepacia)?
Its MIC 90 is > 32 µg/mL.

And the “MIC 50” value ([11]; Stenotrophomonas)?
The value was >32 µg/mL.

And the “MIC 90” value ([11]; Stenotrophomonas)?
Its value is >32 µg/mL.

What about the MIC 50 ([11]; Stenotrophomonas maltophilia) of the same compound?
Its MIC 50 is > 32 µg/mL.

What about the MIC 90 ([11]; Stenotrophomonas maltophilia) of the same compound?
The MIC 90 was > 32 µg/mL.
